# Reference: article PMC11678245, “The Molecular Basis of the Intrinsic and Acquired Resistance to Azole Antifungals in Aspergillus fumigatus” (Journal of Fungi, 2024)
# Entries after “also recorded” stand apart in the source; their conditions may differ. Numbered stars: 1 amine (or outer) side, 2 acyl side, 3 side chain; on linkers, the order of the positions; unused ones are H or OH. Bridge positions count the residues as written; N and C are the ends. Square brackets hold non-standard residues; d marks the D form. Peptide text beside a SMILES is read from it. * marks the point of attachment. hTyr(3S-OH,4S-OH,3'-OSO3H) = N[C@H](C(=O)O)[C@H](O)[C@@H](O)c1ccc(O)c(OS(=O)(=O)O)c1; Orn(4R-OH,5R-OH) = O=C([C@H](C[C@@H](O)[C@@H](O)N[*:3])N[*:1])[*:2]; Pro(3S-OH,4S-Me) = C[C@H]1CN[C@H](C(=O)O)[C@H]1O; X1 = CCCCCOc1ccc(-c2cc(-c3ccc(C(=O)*)cc3)no2)cc1; Gln(3R-OH) = NC(=O)C[C@@H](O)[C@H](N)C(=O)O; Hyp = O=C(O)[C@@H]1C[C@@H](O)CN1
# What was measured:
# [1] = target: AfCYP51A-6×His (Aspergillus fumigatus, UniProt Q4WNT5); assay: Type I binding of substrates (difference spectra); parameters: Full-length codon-optimised AfCYP51A-6×His and AfCYP51B-6×His were constitutively co-expressed; made in house; conditions: AfCYP51A-6×His 5 µM, concentrations up to 300 μM
# Sequence of AfCYP51A-6×His (Q4WNT5 whole entry): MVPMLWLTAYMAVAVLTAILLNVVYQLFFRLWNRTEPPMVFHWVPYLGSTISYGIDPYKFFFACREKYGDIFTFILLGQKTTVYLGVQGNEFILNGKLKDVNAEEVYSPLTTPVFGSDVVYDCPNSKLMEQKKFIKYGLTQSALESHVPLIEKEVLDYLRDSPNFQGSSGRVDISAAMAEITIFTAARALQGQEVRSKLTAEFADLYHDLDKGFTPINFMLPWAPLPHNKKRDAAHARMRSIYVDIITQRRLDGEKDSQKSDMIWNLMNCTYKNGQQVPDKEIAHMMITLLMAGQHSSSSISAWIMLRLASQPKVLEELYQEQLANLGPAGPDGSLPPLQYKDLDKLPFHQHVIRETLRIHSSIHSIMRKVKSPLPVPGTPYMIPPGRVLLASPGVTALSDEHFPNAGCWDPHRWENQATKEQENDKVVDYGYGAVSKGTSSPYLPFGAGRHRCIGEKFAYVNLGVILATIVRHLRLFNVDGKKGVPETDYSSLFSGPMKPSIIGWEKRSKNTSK
# Procedure: (§1) The concentration of AfCYP51A and AfCYP51B, purified using Ni-NTA affinity chromatography and used for the spectrophotometric type I and type II binding assays, was calculated using an extinction co-efficient of λ417nm = 117 mM^−1 cm^−1 applied to the absolute absorption spectrum of the preparations. In addition, the amount of “active” cytochrome P450 enzyme was determined using the carbon monoxide (CO) binding spectra of these preparations.
# Type I binding of substrates lanosterol and eburicol in the active site of the Ni-NTA affinity-purified AfCYP51A and AfCYP51B enzymes was assessed using the method of Warrilow et al.. […] Substrate saturation curves were constructed by plotting the maximal ∆Apeak−trough obtained between 350 and 500 nm, allowing for a change in the reaction volume during the titration. The substrate binding constant (KS) was calculated by nonlinear regression (Levenberg–Marquardt algorithm) applied to the Michaelis–Menten equation or the Hill equation. GraphPad Prism 9.2.0 software was used to identify the best fit for the data.
# [2] = target: T1, AfCYP51B-6×His (Aspergillus fumigatus, UniProt E9QY26); assay: Type I binding of substrates (difference spectra); conditions: for ΔAmax (type I binding): AfCYP51B-6×His 5 μM, Michaelis–Menten equation
# T1 sequence (E9QY26 1-524): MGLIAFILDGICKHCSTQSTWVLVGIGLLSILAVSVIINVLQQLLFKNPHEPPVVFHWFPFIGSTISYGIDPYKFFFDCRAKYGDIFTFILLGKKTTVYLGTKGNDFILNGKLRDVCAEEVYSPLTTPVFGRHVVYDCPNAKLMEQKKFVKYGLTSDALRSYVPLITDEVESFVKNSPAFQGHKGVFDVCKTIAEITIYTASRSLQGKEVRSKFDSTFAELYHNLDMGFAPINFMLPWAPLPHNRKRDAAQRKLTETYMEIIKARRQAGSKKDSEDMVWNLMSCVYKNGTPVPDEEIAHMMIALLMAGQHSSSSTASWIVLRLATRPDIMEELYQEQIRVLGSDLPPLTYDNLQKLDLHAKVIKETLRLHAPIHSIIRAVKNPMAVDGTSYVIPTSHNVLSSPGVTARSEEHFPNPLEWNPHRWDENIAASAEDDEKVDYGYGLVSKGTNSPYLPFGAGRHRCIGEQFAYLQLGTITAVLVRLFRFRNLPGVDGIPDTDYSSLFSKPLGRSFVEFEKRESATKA
# Procedure: as §1
# Type I binding of substrates lanosterol and eburicol in the active site of the Ni-NTA affinity-purified AfCYP51A and AfCYP51B enzymes was assessed using the method of Warrilow et al.. Titrations of 5 μM AfCYP51-6×His protein with lanosterol or eburicol (1 to 250 μM) were measured using a Cary 300 UV–Visible Spectrophotometer (Agilent Technologies, Santa Clara, CA, USA). Substrate saturation curves were constructed by plotting the maximal ∆Apeak−trough obtained between 350 and 500 nm, allowing for a change in the reaction volume during the titration. The substrate binding constant (KS) was calculated by nonlinear regression (Levenberg–Marquardt algorithm) applied to the Michaelis–Menten equation or the Hill equation. GraphPad Prism 9.2.0 software was used to identify the best fit for the data.
# [3] = test system: S. cerevisiae strain BR (AfCyp51B-6×His, AfCprA2-6×His); assay: MIC80 susceptibility, strain BR; type: cell-based; conditions: Saccharomyces cerevisiae; Table 2; strain BR; SD pH 6.8, 48 h, 30 °C; ± SD; read-out: MIC80
# Procedure: (§2) The susceptibilities of S. cerevisiae strains to antifungal drugs were determined as minimum growth inhibitory concentration (MIC) values in 200 μL SD pH 6.8 [24]. Serial 2-fold dilutions of 100 μL of azole or control drugs in SD pH 6.8 were prepared in a 96-well microtiter plate. A portion of a 2 mL SD pH 6.8 overnight culture of the test strain was inoculated into 3 mL fresh SD pH 6.8 and incubated for 4 to 6 h at 30 °C to generate logarithmic-phase cells. These cells were then diluted with fresh SD pH 6.8 to OD600nm = 0.01 (3 × 10^4 CFU), and 100 μL of this cell suspension was added to microtiter plate wells. Cell growth after 48 h incubation at 30 °C with shaking at 200 rpm was determined at 600 nm using a BioTek™ Synergy™ 2 multi-Mode microplate reader controlled using Gen5™ Data Analysis Software version 3.16.10 (BioTek Instruments, Winooski, VT, USA). MIC80 values (80% growth inhibition in the presence of the test drug compared with the untreated control) for each yeast construct were determined as technical triplicates repeated three times for three separate clones.
# [4] = test system: S. cerevisiae strain ADΔΔ (native ScCYP51); assay: MIC80 susceptibility, host strain ADΔΔ; type: cell-based; conditions: Saccharomyces cerevisiae, Table 2, SD pH 6.8, 48 h, 30 °C
# Procedure: as §2
# [5] = test system: S. cerevisiae strain A (AfCyp51A-6×His, native ScCyp51 retained); assay: MIC80 susceptibility, strain A; type: cell-based; conditions: Saccharomyces cerevisiae, Table 2, SD pH 6.8, 48 h, 30 °C
# Procedure: as §2
# [6] = test system: S. cerevisiae strain AR (AfCyp51A-6×His, AfCprA2-6×His); assay: MIC80 susceptibility, strain AR; type: cell-based, Saccharomyces cerevisiae; conditions: Saccharomyces cerevisiae; Table 2; strain AR; SD pH 6.8, 48 h, 30 °C; ± SD; read-out: MIC80
# Procedure: as §2
# [7] = test system: S. cerevisiae strain ARE Y121F (AfCyp51A-6×His Y121F, AfCprA2, AfErg6-FLAG); assay: MIC80 susceptibility, strain Y121F; type: cell-based, Saccharomyces cerevisiae; conditions: Saccharomyces cerevisiae; Table 2; strain Y121F; SD pH 6.8, 48 h, 30 °C; ± SD; read-out: MIC80
# Procedure: as §2
# [8] = test system: S. cerevisiae strain ARE I301T (AfCyp51A-6×His I301T, AfCprA2, AfErg6-FLAG); assay: MIC80 susceptibility, strain I301T; type: cell-based, Saccharomyces cerevisiae; conditions: Saccharomyces cerevisiae, 48 h, pH 6.8, Table 2; strain I301T; SD pH 6.8, 48 h, 30 °C; ± SD; read-out: MIC80
# Procedure: as §2
# [9] = test system: S. cerevisiae strain B (AfCyp51B-6×His, native ScCyp51 retained); assay: MIC80 susceptibility, strain B; type: cell-based; conditions: Saccharomyces cerevisiae, Table 2, SD pH 6.8, 48 h, 30 °C
# Procedure: as §2
# [10] = test system: S. cerevisiae strain BRE (AfCyp51B-6×His, AfCprA2, AfErg6-FLAG); assay: MIC80 susceptibility, strain BRE; type: cell-based, Saccharomyces cerevisiae; conditions: Saccharomyces cerevisiae; Table 2; strain BRE; SD pH 6.8, 48 h, 30 °C; ± SD; read-out: MIC80
# Procedure: as §2
# [11] = test system: S. cerevisiae strain ARE T289A (AfCyp51A-6×His T289A, AfCprA2, AfErg6-FLAG); assay: MIC80 susceptibility, strain T289A; type: cell-based, Saccharomyces cerevisiae; conditions: Saccharomyces cerevisiae, 48 h, pH 6.8, Table 2; strain T289A; SD pH 6.8, 48 h, 30 °C; ± SD; read-out: MIC80
# Procedure: as §2
# [12] = test system: S. cerevisiae strain ARE Y121F T289A (AfCyp51A-6×His Y121F T289A, AfCprA2, AfErg6-FLAG); assay: MIC80 susceptibility, strain Y121F T289A; type: cell-based, Saccharomyces cerevisiae; conditions: Saccharomyces cerevisiae; Table 2; strain Y121F T289A; SD pH 6.8, 48 h, 30 °C; ± SD; read-out: MIC80
# Procedure: as §2
Compound,type I binding response [1],Kd [2],type I binding spectrum peak ([2]; AfCYP51B-6×His),type I binding spectrum trough ([2]; AfCYP51B-6×His),ΔAmax (type I binding) [2],ΔAmax (type I binding) ([2]; listed as eburicol),affinity of AfCYP51B for eburicol versus lanosterol ([2]; ratio of Ks values),MIC80 [3],MIC80 [4],MIC80 [5],MIC80 [6],MIC80 [7],MIC80 [8],MIC80 [9],MIC80 [10],MIC80 [11],MIC80 [12]
"C=C(CC[C@@H](C)[C@H]1CC[C@@]2(C)C3=C(CC[C@]12C)[C@@]1(C)CC[C@H](O)C(C)(C)C1CC3)C(C)C (some centres unmarked) [Eburicol, eburicol]",did not give the expected type I binding response; also recorded: did not give a type I binding response,71 µM,387 nm,422 nm,0.161,0.16,at least 6 fold,,,,,,,,,,
"CCCCCOc1ccc(-c2cc(-c3ccc(C(=O)N[C@H]4C[C@@H](O)[C@@H](O)NC(=O)[C@@H]5[C@@H](O)[C@@H](C)CN5C(=O)[C@H]([C@H](O)CC(N)=O)NC(=O)[C@H]([C@H](O)[C@@H](O)c5ccc(O)c(OS(=O)(=O)O)c5)NC(=O)[C@@H]5C[C@@H](O)CN5C(=O)[C@H]([C@@H](C)O)NC4=O)cc3)no2)cc1 [MCF, Micafungin] (X1-[Orn(4R-OH,5R-OH)]T[Hyp][hTyr(3S-OH,4S-OH,3'-OSO3H)][Gln(3R-OH)][Pro(3S-OH,4S-Me)]; lactam 1-C)",,,,,,,,0.17 ± 0.03 µM,0.22 ± 0.02 µM,0.19 ± 0.03 µM,0.17 ± 0.03 µM,0.24 ± 0.02 µM,0.28 ± 0.01 µM,0.18 ± 0.02 µM,0.14 ± 0.01 µM,0.27 µM,0.21 ± 0.01 µM
